Measured values taken from patent US11076595B2, “1-(n,n-disubstituted carbamoyl) 4-(substituted sulfonyl)triazolin-5-one derivative, 4-(n,n-disubstituted carbamoyl) 1-(substituted sulfonyl)triazolin-5-one derivative, and herbicide containing said derivative as active ingredient” (HOKKO CHEMICAL INDUSTRY CO., LTD., priority 2017, dated 2021).

Legend:
Format in all cases: in vivo
[1] = test system: Echinochloa crus-galli; test: Test Example 11: herbicidal effect test by soil treatment in paddy field; conditions: 120 g/10a active ingredient, 14 days after treatment
Description: (§1) A Wagner pot having an area of 1/10000 are was filled with paddy field soil and after adding water, a chemical fertilizer (N:P:K=17:17:17) was mixed, followed by puddling. Thereafter, 30 grains of each of Echinochloa crus-galli, broad-leaved weed (Lindernia pyxidaria, Monochoria vaginalis) and Scirpus juncoides seeds were sown to a depth of 0 to 1 cm. Immediately after the sowing, the pot was flooded, and the depth of water was kept at about 3 cm. The pot was subsequently managed in a glass greenhouse. Just after that, an emulsifiable concentrate prepared according to Formulation Example 15 by using the compound shown in Table 9 below was diluted with water, and a predetermined amount of the water-diluted formulation was added dropwise. The application rate of the active ingredient, by conversion, corresponded to 120 g per 10 are.
(§2) This test was performed with two replications per one formulation concentration plot, and 14 days after the formulation treatments, the weed suppression rate (%) was determined according to the following equation (Math. 2). Weed suppression rate (%)=(1−average dry weight (g) of plants in treated plots/average dry weight (g) of plants in untreated plots)×100 [Math. 2]

[2] = test system: Monochoria vaginalis; test: as above; conditions: 120 g/10a active ingredient, 14 days after treatment
Description: as §1, §2

[3] = test system: Scirpus juncoides; test: as above; conditions: 120 g/10a active ingredient, 14 days after treatment
Description: as §1, §2

[4] = test system: Lindernia pyxidaria; test: as above; conditions: 120 g/10a active ingredient, 14 days after treatment
Description: as §1, §2

[5] = test system: Echinochloa crus-galli; test: Test Example 12: herbicidal effect test by treatment during growing period in paddy field; conditions: 120 g/10a; treatment seven days after sowing in flooded paddy pot; assessed 14 days after treatment
Description: as §2
as §1, with “Seven Days” for “Just”, “sowing,” for “that,”, “10” for “9”, “are. The test was performed with two replications per one formulation concentration plot, and 14 days after the formulation treatments, the weed suppression rate (%) was determined according to the equation (Math. 2).” for “are.”

[6] = test system: Monochoria vaginalis; test: as above; conditions: 120 g/10a; treatment seven days after sowing in flooded paddy pot; assessed 14 days after treatment
Description: as §2
as §1, with “Seven Days” for “Just”, “sowing,” for “that,”, “10” for “9”, “are. The test was performed with two replications per one formulation concentration plot, and 14 days after the formulation treatments, the weed suppression rate (%) was determined according to the equation (Math. 2).” for “are.”

[7] = test system: Scirpus juncoides; test: as above; conditions: 120 g/10a; treatment seven days after sowing in flooded paddy pot; assessed 14 days after treatment
Description: as §2
as §1, with “Seven Days” for “Just”, “sowing,” for “that,”, “10” for “9”, “are. The test was performed with two replications per one formulation concentration plot, and 14 days after the formulation treatments, the weed suppression rate (%) was determined according to the equation (Math. 2).” for “are.”

[8] = test system: Lindernia pyxidaria; test: as above; conditions: 120 g/10a; treatment seven days after sowing in flooded paddy pot; assessed 14 days after treatment
Description: as §2
as §1, with “Seven Days” for “Just”, “sowing,” for “that,”, “10” for “9”, “are. The test was performed with two replications per one formulation concentration plot, and 14 days after the formulation treatments, the weed suppression rate (%) was determined according to the equation (Math. 2).” for “are.”

Compound	Weed suppression rate (%) Echinochloa crus-galli [1] [%]	Weed suppression rate (%) Monochoria vaginalis [2] [%]	Weed suppression rate (%) Scirpus juncoides [3] [%]	Weed suppression rate (%) Lindemia pyxidaria [4] [%]	Weed suppression rate (%) Echinochloa crus-galli [5] [%]	Weed suppression rate (%) Monochoria vaginalis [6] [%]	Weed suppression rate (%) Scirpus juncoides [7] [%]	Weed suppression rate (%) Lindemia pyxidaria [8] [%]
CC(C)N(C(=O)n1cnn(S(=O)(=O)c2cccs2)c1=O)c1ccc(C(F)(F)F)cc1Cl [Compound 11-1042]	90	80	90	80	90	80	90	80
CC(C)N(C(=O)n1cnn(S(=O)(=O)C2CC2)c1=O)c1ccc(C(F)(F)F)cc1Cl [Compound 11-220]	100	60	90	90	90	90	80	90
CN(C(=O)n1cnn(S(C)(=O)=O)c1=O)c1ccc(F)cc1F [Compound 11-1125]	90	60	60	60	90	60	30	70
Cc1ccc(N(C(=O)n2cnn(S(=O)(=O)c3cccc(C(F)(F)F)c3)c2=O)C(C)C)c(F)c1 [Compound 11-737]	90	80	90	80	90	80	90	80
CC(C)N(C(=O)n1cnn(S(=O)(=O)c2cccc(Cl)c2)c1=O)c1ccc(F)c(F)c1F [Compound 11-553]	100	70	30	90	100	60	30	70
CC(C)N(C(=O)n1cnn(S(C)(=O)=O)c1=O)c1ccc(F)c(F)c1F [Compound 11-15]	90	60	60	70	70	60	100	60
CC(C)N(Cc1ccc(F)cc1F)C(=O)n1cnn(S(=O)(=O)N(C)C)c1=O [Compound 11-1088]	90	80	90	80	90	80	90	80
CC(C)N(C(=O)n1cnn(S(=O)(=O)c2ccc(F)cc2)c1=O)c1ccc(Br)cc1Cl [Compound 11-486]	90	80	80	90	60	70	60	70
CC(C)N(C(=O)n1cnn(S(=O)(=O)c2c(F)cccc2F)c1=O)c1cccc(F)c1F [Compound 11-772]	100	80	80	90	100	90	90	70
